Test results taken from patent publication US9757324B2, “Emu oil in combination with other active ingredients for treating skin imperfections” (priority 2011, dated 2017).

Assay: Histological examination of skin after topical application
Format: in vivo, volunteers
Description: A study conducted with Emu Oil and doxycycline was undertaken in volunteers with mild to moderate acne. Sixteen volunteers participated who had mild to moderate acne, and one had severe cystic acne. Within 48 hours of application of the combination, the acne had disappeared. Only the volunteer with severe cystic acne had to apply the combination for five days for the acne to resolve. The efficacy was 100%. […] There are no tropical formulations of doxycycline to compare with. On histological examination, doxycycline was found in the dermis within 15 minutes of topical application.

- time after which doxycycline was found in the dermis: ≤ 15 min
Compound: C[C@H]1c2cccc(O)c2C(=O)C2=C(O)[C@]3(O)C(=O)C(C(N)=O)=C(O)[C@@H](N(C)C)[C@@H]3[C@@H](O)[C@@H]21 [doxycycline]
